Test results taken from patent US20150320704A1, “COMPOSITIONS AND METHODS FOR TREATMENT OF HAIR LOSS” (DS Healthcare Group, Inc., priority 2014, published 2015).

How the values were obtained:
[1] = system: male subjects experiencing active thinning-hair; experiment: Hair regrowth study, double blind, daily topical application for 90 days; assay type: in vivo, human
Experimental: A double blind study was performed on male subjects between the ages of 25 and 55 years who had been experiencing active thinning-hair. […] A global photograph of each subject was taken from the crown area and a second photograph was taken of the top of the head to track frontal areas. […] In addition to the pimarene compounds, the formulations contained pine resin compounds that are not calcium channel opening agents, including abietic acid, neoabietic acid, dehydroabietic acid, and palustric acid. The target sites of each subject were monitored over the 90 day period and photographs were again obtained at the end of this period and compared to those at baseline.
The formulation lacks a pine resin compound other than a pimarene compound.

balding macaques = settings: topical application, 20-week treatment period; cited from earlier work
humans = settings: cited from earlier work
[2] = Example 2: study of Example 1 repeated, formulation of vehicle and one pimarene compound, lacking other pine resin compounds
[3] = Example 3: study of Example 1 repeated, formulation of vehicle and a potassium channel opening agent other than pimarene compounds

C=C[C@]1(C)C=C2CC[C@@H]3[C@](C)(CCC[C@@]3(C)C(=O)O)[C@H]2CC1 [sandaracopimaric acid]
hair thickness and growth, outcome of treatment [1, 2]: improvement in hair thickness and growth in a majority of the subjects

CC1(C)Oc2ccc(C#N)cc2C(N2CCCC2=O)C1O (centres unmarked) [cromakalin]
scalp hair growth (balding macaques): stimulated hair growth

CCC(C)(C)N=C(NC#N)Nc1cccnc1 [P-1075]
scalp hair growth (balding macaques): stimulated hair growth

C=C[C@@]1(C)C=C2CC[C@@H]3[C@](C)(CCC[C@@]3(C)C(=O)O)[C@H]2CC1 [pimaric acid]
hair thickness and growth, outcome of treatment [1, 2]: improvement in hair thickness and growth in a majority of the subjects

COc1ccc(Cl)cc1[C@]1(F)C(=O)Nc2cc(C(F)(F)F)ccc21 [BIAS-204352]
hair thickness and growth, outcome of treatment [1, 3]: improvement in hair thickness and growth in a majority of the subjects

dihydropimaric acid
hair thickness and growth, outcome of treatment [1, 2]: improvement in hair thickness and growth in a majority of the subjects

FC(F)(F)C(Cl)Br (centres unmarked) [halothane]
hair thickness and growth, outcome of treatment [1, 3]: improvement in hair thickness and growth in a majority of the subjects

CC(N/C(=N\C#N)Nc1ccncc1)C(C)(C)C (centres unmarked) [pinacidil]
hypertrichosis (humans): cause hypertrichosis

CNC(=S)[C@]1(c2cccnc2)CCCC[S+]1[O-] (some centres unmarked) [RP-49,356]
scalp hair growth (balding macaques): not effective in promoting hair growth

CC1=NS(=O)(=O)c2cc(Cl)ccc2N1 [diazoxide]
hypertrichosis (humans): cause hypertrichosis

CC(C(O)c1ccc(O)cc1)N1CCC(Cc2ccccc2)CC1 (centres unmarked) [ifenprodil]
hair thickness and growth, outcome of treatment [1, 3]: improvement in hair thickness and growth in a majority of the subjects

CC[C@@]1(C)CC[C@H]2C(=CCC3[C@]2(C)CCC[C@]3(C)C(=O)O)C1 (some centres unmarked) [dihydroisopimaric acid]
hair thickness and growth, outcome of treatment [1, 2]: improvement in hair thickness and growth in a majority of the subjects

CC[C@@]1(C)CC[C@H]2C(=CC[C@H]3[C@](C)(CO)CCC[C@]23C)C1 [dihydroisopimarinol]
hair thickness and growth, outcome of treatment [1, 2]: improvement in hair thickness and growth in a majority of the subjects

C=C[C@@]1(C)CC[C@H]2C(=CC[C@@H]3[C@]2(C)CCC[C@@]3(C)C(=O)O)C1 [isopimaric acid]
hair thickness and growth, outcome of treatment [1, 2]: improvement in hair thickness and growth in a majority of the subjects
